# Data from US20250074891A1 (Anaxis Pharma Pty Ltd., priority 2021, published 2025).
# Where two headings read alike, the source gives them in different places.
# What was measured:
# RIP3 = RIP3 (Homo sapiens (Human), UniProt Q9Y572); assay: KINOMEscan binding assay, RIP3; conditions: Table 35
# Description: (§1) Kinase assays. For most assays, kinase-tagged T7 phage strains were grown in parallel in 24-well blocks in an E. coli host derived from the BL21 strain. E. coli were grown to log-phase and infected with T7 phage from a frozen stock (multiplicity of infection=0.4) and incubated with shaking at 32° C. until lysis (90-150 minutes).
# (§2) The Hill Slope was set to −1.
# [1] = tested on: U937 human histiocytic leukemia cell line; assay: Cellular assay: inhibition of TSQ induced necroptosis (CellTitre-Glo); conditions: U937 cells, TSQ cocktail, 48 hours, read-out: Inhibition of TSQ-induced necroptosis (IC50 cell-based assay)
# Outline: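 U937 cells (20,000/well) pre-dosed with compound (10-point, 1:3 from 36 μM, 0.3% DMSO), then TSQ (hTNF-Fc 100 ng/ml, Smac mimetic 500 nM, Q-VD-OPh 10 μM) for 48 h at 37 °C. Viability by CellTiter-Glo luminescence, normalised to DMSO (100%) and DMSO+TSQ (0%); IC50 from 4-parameter fit.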
# U937 cells = assay: Counter screen: cell viability without TSQ cocktail (off-target effect); set-up: species or system human
# Description: Counter screen: In parallel, all compounds were tested for their ability to affect cell viability. The same U937 cells were treated with compound in DMSO without the TSQ cocktail. This counter screen enabled evaluation of off-target effects. In this case, cell viability was measured by CelltiterGlo.
# RIP1 = RIP1 (Homo sapiens (Human), UniProt Q13546); assay: KINOMEscan binding assay, RIP1; conditions: Table 35
# MLKL (full length) = MLKL (full length) (Homo sapiens (Human), UniProt Q8NB16); assay: KINOMEscan binding assay, MLKL (full length)
# Description: as §1, §2
# endogenous MLKL in U937 = endogenous MLKL in U937 (Homo sapiens (Human), UniProt Q8NB16); assay: Degradation assay: degradation of endogenous MLKL in human cells (Western blot); conditions: 24 h incubation, read-out: Degradation of endogenous MLKL in U937 (DC50 cell-based assay in μM)
# Description: DEGRADATION ASSAY: Screening Compounds Procedure to Evaluate the Activity of Compounds in Degrading Endogenous MLKL in Human Cell
# The human monocyte cell line (U937) was seeded on the day of the experiment in a 24-well plate at a cell density of 5*10^5 cells per well in a volume of 0.5 mL per well.
# The compound was diluted in DMSO with a starting concentration of 10 mM and titrated stepwise with a dilution of 1:5. 0.5 μL of the compound dilution was added to the appropriate well to achieve a final concentration of 10; 2; 0.4; 0.08 and 0.016 μM. A DMSO only well was included as control.
# The cells were incubated for 24 h in the presence of the compound at 37° C. and 10% CO2.
# After the 24 h incubation period, the medium was removed and cells washed with 0.5 mL PBS. The cells were then lysed directly in 60 μL of 1×SDS gel loading buffer.
# The cell lysate was heat-denatured at […] for 10 min. 10 μL of lysate per well were run on 18-well 4-15% Criterion TGX stain free gels (BIO-RAD). The proteins were then transferred onto nitrocellulose membrane with a wet transfer protocol in the Criterion Blotter (BIO-RAD).
# Membranes were blocked with 5% skim milk in TBST. Primary antibody against MLKL (clone 3H1, MABC604 Merck) was used at 1:2000 dilution in TBST with 1% BSA and left shaking over night at 4° C. After washes with TBST, the membranes were incubated with goat anti-rat IgG HRP-conjugated antibody (Southern Biotech) in 1% skim milk TBST at 1:10000 dilution for 1 h at room temperature. After TBST washes the bands were imaged on the ChemiDoc MP Imaging Systm (BIO-RAD) with Immobilion Western Chemiluminescent HRP Substrate Forte (Millipore). The loading control GAPDH was probed for with rabbit anti-GAPDH (CST 14C10) at 1:2000 dilution in 1% BSA TBST over night at 4° C. TBST washes were followed by incubation with goat anti-rabbit IgG HRP-conjugated antibody (Southern Biotech) in 1% skim milk TBST at 1:10000 dilution for 1 h at room temperature followed by TBST washes. The signal was detected as described above.
# The band intensity was measured in the ImageLab Software (BIO-RAD) and the MLKL values adjusted for loading with GAPDH. The percentage of degradation was calculated by normalizing the compound treated values to the DMSO only control.
# [2] = Homo sapiens, U-937, Table 37, read-out: Off-target effect (IC50 cell-based assay)
# [3] = Homo sapiens, U-937, Table 38, read-out: Off-target effect (IC50 cell-based assay)
# Chain of RIP1 (Q13546 whole entry): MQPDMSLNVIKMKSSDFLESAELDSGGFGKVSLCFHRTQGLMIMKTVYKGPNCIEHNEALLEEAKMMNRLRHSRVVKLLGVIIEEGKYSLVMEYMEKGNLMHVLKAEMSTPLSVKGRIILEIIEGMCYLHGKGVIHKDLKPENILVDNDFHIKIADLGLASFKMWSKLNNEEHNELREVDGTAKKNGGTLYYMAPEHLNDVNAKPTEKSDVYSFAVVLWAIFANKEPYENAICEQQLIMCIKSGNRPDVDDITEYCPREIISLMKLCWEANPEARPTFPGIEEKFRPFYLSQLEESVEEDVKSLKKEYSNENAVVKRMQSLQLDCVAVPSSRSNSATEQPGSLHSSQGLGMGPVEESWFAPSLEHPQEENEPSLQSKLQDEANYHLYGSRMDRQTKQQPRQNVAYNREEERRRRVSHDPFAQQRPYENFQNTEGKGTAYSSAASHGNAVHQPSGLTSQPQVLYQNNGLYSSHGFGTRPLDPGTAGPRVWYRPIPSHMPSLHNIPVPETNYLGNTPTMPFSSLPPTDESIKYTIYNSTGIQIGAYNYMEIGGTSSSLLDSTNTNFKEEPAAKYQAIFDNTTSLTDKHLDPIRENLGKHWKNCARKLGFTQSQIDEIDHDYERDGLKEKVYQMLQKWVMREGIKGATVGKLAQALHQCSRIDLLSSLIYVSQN
# Chain of MLKL (full length) (Q8NB16 whole entry): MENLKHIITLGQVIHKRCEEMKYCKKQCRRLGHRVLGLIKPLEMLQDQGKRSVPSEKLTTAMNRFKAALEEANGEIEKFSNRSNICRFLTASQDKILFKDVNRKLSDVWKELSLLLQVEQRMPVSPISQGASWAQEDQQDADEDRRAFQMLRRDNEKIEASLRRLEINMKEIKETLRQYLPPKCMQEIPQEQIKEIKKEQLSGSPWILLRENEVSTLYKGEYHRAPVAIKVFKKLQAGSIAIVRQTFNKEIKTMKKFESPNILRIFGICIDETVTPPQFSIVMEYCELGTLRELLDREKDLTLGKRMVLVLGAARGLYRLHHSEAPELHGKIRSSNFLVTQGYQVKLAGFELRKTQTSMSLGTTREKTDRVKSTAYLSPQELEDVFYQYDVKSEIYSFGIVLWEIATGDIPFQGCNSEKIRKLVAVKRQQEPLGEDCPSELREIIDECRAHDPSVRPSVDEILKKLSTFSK
# Chain of RIP3 (Q9Y572 whole entry): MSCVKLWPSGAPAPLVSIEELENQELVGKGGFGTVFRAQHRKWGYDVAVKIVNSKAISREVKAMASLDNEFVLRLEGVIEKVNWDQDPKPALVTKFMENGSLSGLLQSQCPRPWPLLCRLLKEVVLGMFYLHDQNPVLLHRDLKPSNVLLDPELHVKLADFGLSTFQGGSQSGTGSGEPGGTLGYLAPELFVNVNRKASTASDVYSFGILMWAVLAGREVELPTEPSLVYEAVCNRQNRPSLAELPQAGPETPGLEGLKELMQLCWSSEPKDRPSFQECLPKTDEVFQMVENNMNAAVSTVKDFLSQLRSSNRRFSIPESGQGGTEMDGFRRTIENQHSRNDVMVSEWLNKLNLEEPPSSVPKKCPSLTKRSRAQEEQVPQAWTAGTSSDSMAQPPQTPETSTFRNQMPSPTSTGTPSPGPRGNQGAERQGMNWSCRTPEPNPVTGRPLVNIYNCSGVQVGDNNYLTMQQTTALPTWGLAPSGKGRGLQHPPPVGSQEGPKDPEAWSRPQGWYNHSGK
# Chain of endogenous MLKL in U937 (Q8NB16 whole entry): as the sequence (Q8NB16 whole entry) above
Kd (RIP3) [µM],Kd (RIP1) [µM],Kd (MLKL (full length); Table 35) [µM],Kd (MLKL (full length); Table 36) [µM],SMILES,"IC50 ([1]; Homo sapiens, U-937, Table 37) [µM]",IC50 (U937 cells; [2]) [µM],"IC50 ([1]; Homo sapiens, U-937, Table 38) [µM]",IC50 (U937 cells; [3]) [µM],DC50 (endogenous MLKL in U937) [µM],IC50 ([1]; Table 37) [µM],"IC50 (U937 cells; Table 37, read-out: Off-target effect (IC50 cell-based assay)) [µM]"
,,,,"Cc1ncsc1-c1ccc(CNC(=O)[C@@H]2C[C@@H](O)CN2C(=O)[C@@H](NC(=O)CCCCOc2ccc(Nc3[nH]nc(-c4ccc(NS(=O)(=O)C(F)F)c(OCc5ccc(F)cc5)c4)c3C(N)=O)nc2)C(C)(C)C)cc1 [Compound 1025, 3-[4-(difluoromethanesulfonamido)-3-[(4-fluorophenyl)methoxy]phenyl]-5-{[5-(4-{[(2S)-1-[(2S,4R)-4-hydroxy-2-({[4-(4-methyl-1,3-thiazol-5-yl)phenyl]methyl}carbamoyl)pyrrolidin-1-yl]-3,3-dimethyl-1-oxobutan-2-yl]carbamoyl}butoxy)pyridin-2-yl]amino}-1H-pyrazole-4-carboxamide]",,,< 1,> 10,< 1,,
1 to 30,> 30,< 0.01,,"CCS(=O)(=O)Nc1ccc(-c2n[nH]c(Nc3cncc(C)n3)c2C(N)=O)cc1 [Compound 84, 3-(4-(ethylsulfonamido)phenyl)-5-((6-methylpyrazin-2-yl)amino)-1H-pyrazole-4-carboxamide]",1 to 30,> 30,,,,,
> 30,> 30,< 0.01,,"NC(=O)c1c(-c2ccc(NS(=O)(=O)Cc3cccc(Cl)c3)cc2)n[nH]c1Nc1cccc(C(F)(F)F)n1 [Compound 9, 3-(4-(((3-chlorophenyl)methyl)sulfonamido)phenyl)-5-((6-(trifluoromethyl)pyridin-2-yl)amino)-1H-pyrazole-4-carboxamide]",0.01 to 1,> 30,,,,,
,,,,"Cc1ncsc1-c1ccc(CNC(=O)[C@@H]2C[C@@H](O)CN2C(=O)[C@@H](NC(=O)c2ccc(COc3ccc(Nc4[nH]nc(-c5ccc(NS(=O)(=O)C(F)F)c(O[C@@H](C)c6ccc(F)cc6)c5)c4C(N)=O)nc3)cc2)C(C)(C)C)cc1 [Compound 1030, 3-[4-(difluoromethanesulfonamido)-3-[(1S)-1-(4-fluorophenyl)ethoxy]phenyl]-5-({5-[(4-{[(2S)-1-[(2S,4R)-4-hydroxy-2-({[4-(4-methyl-1,3-thiazol-5-yl)phenyl]methyl}carbamoyl)pyrrolidin-1-yl]-3,3-dimethyl-1-oxobutan-2-yl]carbamoyl}phenyl)methoxy]pyridin-2-yl}amino)-1H-pyrazole-4-carboxamide]",,,< 1,> 10,< 1,,
> 30,> 30,< 0.01,,"C[C@H](Oc1cc(-c2n[nH]c(Nc3cnccn3)c2C(N)=O)ccc1NS(=O)(=O)CC(F)(F)F)c1cccc(F)c1 [Compound 265, 3-{3-[(1S)-1-(3-fluorophenyl)ethoxy]-4-(2,2,2-trifluoroethanesulfonamido)phenyl}-5-[(pyrazin-2-yl)amino]-1H-pyrazole-4-carboxamide]",1 to 30,> 30,,,,,
> 30,> 30,< 0.01,,"Cc1cc(Nc2[nH]nc(-c3ccc(NS(=O)(=O)C(F)F)c(O[C@@H](C)c4ccc(F)cc4)c3)c2C(N)=O)nn1C [Compound 285, (S)-3-(4-((difluoromethyl)sulfonamido)-3-(1-(4-fluorophenyl)ethoxy)phenyl)-5-((1,5-dimethyl-1H-pyrazol-3-yl)amino)-1H-pyrazole-4-carboxamide]",< 0.01,> 30,,,,,
,,,0.01 to 1,"CCS(=O)(=O)Nc1ccc(-c2n[nH]c(Nc3ccc(C(=O)OCCOCC(=O)N[C@H](C(=O)N4C[C@H](O)C[C@H]4C(=O)NCc4ccc(-c5scnc5C)cc4)C(C)(C)C)cn3)c2C(N)=O)cc1O[C@@H](C)c1ccc(F)cc1 [Compound 1046, 2-({[(2S)-1-[(2S,4R)-4-hydroxy-2-({[4-(4-methyl-1,3-thiazol-5-yl)phenyl]methyl}carbamoyl)pyrrolidine-1-yl]-3,3-dimethyl-1-oxobutan-2-yl]carbamoyl}methoxy)ethyl 6-[(4-carbamoyl-3-{4-ethanesulfonamido-3-[(1S)-1-(4-fluorophenyl)ethoxy]phenyl}-1H-pyrazol-5-yl)amino]pyridine-3-carboxylate]",,,< 1,> 10,,,
,,,< 0.01,"Cc1ncsc1-c1ccc(CNC(=O)[C@@H]2C[C@@H](O)CN2C(=O)[C@@H](NC(=O)COCCOCCn2ccc(Nc3[nH]nc(-c4ccc(NS(=O)(=O)C(F)F)c(O[C@@H](C)c5ccc(F)cc5)c4)c3C(N)=O)n2)C(C)(C)C)cc1 [Compound 1037, 3-[4-(difluoromethanesulfonamido)-3-[(1S)-1-(4-fluorophenyl)ethoxy]phenyl]-5-[(1-{2-[2-({[(2S)-1-[(2S,4R)-4-hydroxy-2-({[4-(4-methyl-1,3-thiazol-5-yl)phenyl]methyl}carbamoyl)pyrrolidin-1-yl]-3,3-dimethyl-1-oxobutan-2-yl]carbamoyl}methoxy)ethoxy]ethyl}-1H-pyrazol-3-yl)amino]-1H-pyrazole-4-carboxamide]",,,< 1,> 10,,,

SMILES,Kd (RIP3) [µM],Kd (RIP1) [µM],Kd (MLKL (full length); Table 35) [µM],Kd (MLKL (full length); Table 36) [µM],"IC50 ([1]; Homo sapiens, U-937, Table 37) [µM]",IC50 (U937 cells; [2]) [µM],"IC50 ([1]; Homo sapiens, U-937, Table 38) [µM]",IC50 (U937 cells; [3]) [µM],DC50 (endogenous MLKL in U937) [µM],IC50 ([1]; Table 37) [µM],"IC50 (U937 cells; Table 37, read-out: Off-target effect (IC50 cell-based assay)) [µM]"
"CCS(=O)(=O)Nc1ccc(-c2c(C(N)=O)c(Nc3cnccn3)nn2C)cc1 [Compound 222, 5-(4-(ethylsulfonamido)phenyl)-1-methyl-3-(pyrazin-2-ylamino)-1H-pyrazole-4-carboxamide]",> 30,> 30,< 0.01,,1 to 30,> 30,,,,,
"Cc1cnc(Nc2[nH]nc(-c3ccc(NS(=O)(=O)C(F)F)c(OCc4ccc(F)c(F)c4)c3)c2C(N)=O)cn1 [Compound 291, 3-(3-((3,4-difluoro-benzyl)oxy)-4-((difluoro-methyl)sulfon-amido)phenyl)-5-((5-methyl-pyrazin-2-yl)amino)-1H-pyrazole-4-carboxamide]",> 30,> 30,< 0.01,,,,,,,< 0.01,1 to 30
"CCS(=O)(=O)Nc1ccc(-c2n[nH]c(Nc3ccnc(OCCCCC(=O)N[C@H](C(=O)N4C[C@@H](O)C[C@H]4C(=O)NCc4ccc(-c5scnc5C)cc4)C(C)(C)C)c3)c2C(N)=O)cc1 [Compound 1014, 3-(4-ethanesulfonamidophenyl)-5-{[2-(4-{[(2S)-1-[(2S,4S)-4-hydroxy-2-({[4-(4-methyl-1,3-thiazol-5-yl)phenyl]methyl}carbamoyl)pyrrolidin-1-yl]-3,3-dimethyl-1-oxobutan-2-yl]carbamoyl}butoxy)pyridin-4-yl]amino}-1H-pyrazole-4-carboxamide]",,,,< 0.01,,,> 10,> 10,,,
